Ends that are not written are not given here.
Legend:
Format in all cases: cell-based
[1] = tested on: fresh erythrocytes from the ICR mice; assay: Hemolytic assay, mouse erythrocytes; conditions: mouse blood cells, 30 min, 37°C, A570
Experimental: Hemolytic activity of peptides against fresh erythrocytes from the ICR mice (Mus musculus), the lizards (Eremias multiocellata) or the pigeons (Columba livia domestica) was assayed according to the standard method (Zhu et al., [2012a]). An aliquot of freshly prepared venom was diluted with 0.9% NaCl to a protein concentration of ~5 mg/mL for use. The percentage of hemolysis is determined as (Apep-Ablank)/(Atot-Ablank) × 100, in which “A” represents absorbance measured at 570 nm. Ablank and Aprep were evaluated in the absence or presence of the venom or peptides. 100% hemolysis (Atot) was obtained in the presence of 1% Triton X-100.

[2] = tested on: Staphylococcus aureus J706; assay: Inhibition-zone assay (CL); conditions: SA J706, N.A. = no activity at 0.8 nmol peptide each well
Summary of the method: (§1)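 Bacteria (~2 × 10^6 cells/ml) were seeded in 0.8% soft-agar medium (LB, Nutrient Broth or GYM) and grown at 30 or 37°C. Three peptide doses were placed in separate 2 mm wells, and inhibition zones were measured after overnight incubation. CL was calculated from the slope and intercept of a d^2 versus log n plot.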

[3] = tested on: Salmonella enterica ATCC 14028; assay: Inhibition-zone assay (CL); conditions: SE ATCC 14028, N.A. = no activity at 0.8 nmol peptide each well
Summary of the method: as §1

[4] = tested on: Staphylococcus aureus J710; assay: Inhibition-zone assay (CL); conditions: SA J710, N.A. = no activity at 0.8 nmol peptide each well
Summary of the method: as §1

[5] = tested on: Streptomyces scabiei CGMCC 4.1765; assay: Inhibition-zone assay (CL); conditions: SSCA CGMCC 4.1765, N.A. = no activity at 0.8 nmol peptide each well
Summary of the method: as §1

Escherichia coli TOP10 = assay: Inhibition-zone assay (CL); conditions: EC TOP10, N.A. = no activity at 0.8 nmol peptide each well
Summary of the method: as §1

[6] = tested on: Pseudomonas aeruginosa 11082603; assay: Inhibition-zone assay (CL); conditions: PA 11082603, N.A. = no activity at 0.8 nmol peptide each well
Summary of the method: as §1

[7] = tested on: Pseudomonas aeruginosa 11092618; assay: Inhibition-zone assay (CL); conditions: PA 11092618, N.A. = no activity at 0.8 nmol peptide each well
Summary of the method: as §1

[8] = tested on: Pseudomonas aeruginosa 14; assay: Inhibition-zone assay (CL); conditions: PA 14, N.A. = no activity at 0.8 nmol peptide each well
Summary of the method: as §1

[9] = tested on: Alcaligenes faecalis CGMCC 1.1837; assay: Inhibition-zone assay (CL); conditions: AF CGMCC 1.1837, N.A. = no activity at 0.8 nmol peptide each well
Summary of the method: as §1

[10] = tested on: Pseudomonas aeruginosa 11092304; assay: Inhibition-zone assay (CL); conditions: PA 11092304, N.A. = no activity at 0.8 nmol peptide each well
Summary of the method: as §1

[11] = tested on: Pseudomonas aeruginosa O1; assay: Inhibition-zone assay (CL); conditions: PA O1, N.A. = no activity at 0.8 nmol peptide each well
Summary of the method: as §1

[12] = tested on: Pseudomonas aeruginosa 11082616; assay: Inhibition-zone assay (CL); conditions: PA 11082616, N.A. = no activity at 0.8 nmol peptide each well
Summary of the method: as §1

[13] = tested on: Pseudomonas aeruginosa QT1; assay: Inhibition-zone assay (CL); conditions: PA QT1, N.A. = no activity at 0.8 nmol peptide each well
Summary of the method: as §1

[14] = tested on: Pseudomonas aeruginosa DH; assay: Inhibition-zone assay (CL); conditions: PA DH, N.A. = no activity at 0.8 nmol peptide each well
Summary of the method: as §1

Candida albicans JX1017 = assay: Inhibition-zone assay (CL); conditions: CA JX1017, 28°C, N.A. = no activity at 0.8 nmol peptide each well
Candida albicans 4259 = assay: Inhibition-zone assay (CL); conditions: CA 4259, 28°C, N.A. = no activity at 0.8 nmol peptide each well
Candida albicans SZ72 = assay: Inhibition-zone assay (CL); conditions: CA SZ72, 28°C, N.A. = no activity at 0.8 nmol peptide each well
Candida albicans 4277 = assay: Inhibition-zone assay (CL); conditions: CA 4277, 28°C, N.A. = no activity at 0.8 nmol peptide each well
Candida albicans 4257 = assay: Inhibition-zone assay (CL); conditions: CA 4257, 28°C, N.A. = no activity at 0.8 nmol peptide each well
[15] = tested on: Saccharomyces cerevisiae CCTCC AY 92003; assay: Inhibition-zone assay (CL); conditions: SC CCTCC AY 92003, 28°C, N.A. = no activity at 0.8 nmol peptide each well
Candida albicans JX1016 = assay: Inhibition-zone assay (CL); conditions: CA JX1016, 28°C, N.A. = no activity at 0.8 nmol peptide each well
[16] = peptide 3.125 μM, mean ± S.D., triplicate

Compound	hemolysis [1, 16]	Lethal concentration (CL) [2] [µM]	Lethal concentration (CL) [3] [µM]	Lethal concentration (CL) [4] [µM]	Lethal concentration (CL) [5] [µM]	Lethal concentration (CL) (Escherichia coli TOP10) [µM]	Lethal concentration (CL) [6] [µM]	Lethal concentration (CL) [7] [µM]	Lethal concentration (CL) [8] [µM]	Lethal concentration (CL) [9] [µM]	Lethal concentration (CL) [10] [µM]	Lethal concentration (CL) [11] [µM]	Lethal concentration (CL) [12] [µM]	Lethal concentration (CL) [13] [µM]	Lethal concentration (CL) [14] [µM]	Lethal concentration (CL) (Candida albicans JX1017) [µM]	Lethal concentration (CL) (Candida albicans 4259) [µM]	Lethal concentration (CL) (Candida albicans SZ72) [µM]	Lethal concentration (CL) (Candida albicans 4277) [µM]	Lethal concentration (CL) (Candida albicans 4257) [µM]	further results
CC[C@H](C)[C@H](NC(=O)CN)C(=O)NCC(=O)N[C@@H](C)C(=O)N[C@H](C(=O)N[C@@H](CC(C)C)C(=O)N[C@@H](CCCCN)C(=O)N[C@H](C(=O)N[C@@H](CC(C)C)C(=O)N[C@H](C(=O)N[C@H](C(=O)NCC(=O)N[C@@H](CC(C)C)C(=O)N1CCC[C@H]1C(=O)N[C@@H](C)C(=O)N[C@@H](CC(C)C)C(=O)N[C@H](C(=O)N[C@@H](CO)C(=O)N[C@@H](Cc1c[nH]c2ccccc12)C(=O)N[C@H](C(=O)N[C@@H](CCCCN)C(=O)N[C@@H](CCCNC(=N)N)C(=O)N[C@@H](CCCCN)C(=O)N[C@@H](CCCNC(=N)N)C(=O)N[C@@H](CCC(N)=O)C(=O)N[C@@H](CCC(N)=O)C(N)=O)[C@@H](C)CC)[C@@H](C)CC)[C@@H](C)O)[C@@H](C)O)C(C)C)C(C)C [Melittin, reference compound]	complete hemolysis	16.41	24.74	8.98	15.93	13.80	–	–	–	–	–	–	–	–	–	–	–	–	–	–	–
FFGHLFKLATKIIPSFFRRKNQ [MAC-22]	–	–	16.37	–	–	–	14.35	19.08	6.78	11.13	24.82	12.03	19.08	10.98	11.13	–	–	–	–	–	–
FFGHLFKLATKIIPSLFQ [MUC-18, reference compound]	–	4.86	35.64	5.16	4.45	–	–	31.40	31.40	18.64	31.40	41.58	31.40	18.49	–	–	–	–	–	–	–
FFGHLFKLATKIIPSLFQRKKE [MUC-22]	–	–	14.73	–	–	–	6.10	6.10	4.06	11.65	10.02	3.79	10.02	6.10	9.93	–	–	–	–	–	–
FLFSLIPSAISGLINAFK-NH2 [MeuFSPL-2]	–	7.04	–	7.04	7.75	11.58	–	–	–	–	–	–	–	–	–	11.10	12.61	12.72	7.06	12.72	Lethal concentration (CL) [15]: 11.62 µM; Lethal concentration (CL) (Candida albicans JX1016): 23.35 µM
FLFSLIPSAISGLISAFK-NH2 [MeuFSPL-1]	61 ± 2.5%	10.92	–	10.92	1.77	9.94	–	–	–	–	–	–	–	–	–	11.72	14.80	21.82	6.25	14.64	hemolysis ([1]; peptide 6.25 μM): ~100%; Lethal concentration (CL) [15]: 25.00 µM; Lethal concentration (CL) (Candida albicans JX1016): 28.38 µM
FLFSLIPSAISGLISAFKGRRKRDLN-NH2 [MarMEL]	66 ± 1.2%	8.41	1.61	8.41	1.56	4.10	8.41	8.41	–	–	24.95	–	8.41	14.29	14.29	4.07	5.17	6.70	7.04	6.84	hemolysis ([1]; peptide 6.25 μM): ~100%; Lethal concentration (CL) [15]: 7.72 µM; Lethal concentration (CL) (Candida albicans JX1016): 14.29 µM

Reference: article PMC5863496, “Mesobuthus Venom-Derived Antimicrobial Peptides Possess Intrinsic Multifunctionality and Differential Potential as Drugs” (Frontiers in Microbiology, 2018)
